Experimental data: paper PMC3319690 (Journal of Immunology (Baltimore, Md. : 1950), 2008)

Tests used:
[1] = test system: naive, epitope-specific precursor CD8^+ T cells; parameters: species or system mouse; conditions: for Naive epitope-specific CD8^+ T cells per mouse: spleen and lymph nodes of individual naive H-2^b mice, average, n = 15–19, tetramer-based enrichment
CD8^+ T cells [2] = conditions: mouse, in vivo
CD8^+ T cells [3] = conditions: mouse, in vivo; remark: listed apart in the source
[4] = test system: naive, epitope-specific precursor CD8^+ T cells; conditions: indirect titration of TCR transgenic T cells; cited from earlier work
CD8^+ T cells [5] = format: in vivo, mouse
CD8^+ T cells [6] = conditions: mouse, in vivo; remark: listed apart in the source

Substance | Naive epitope-specific CD8^+ T cells per mouse [1] [CD8^+ T cells] | IFN-γ response to wild-type epitopes in GPVNPV-inoculated mice (CD8^+ T cells [2]) | CD8^+ T cell response in rVACV-immunized mice (CD8^+ T cells [3]) | Precursor frequency relative to NP396–404/D^b-specific precursors ([1]; naive H-2^b mice) [fold] | Previous estimate of GP33–41/D^b-specific precursors [4] | Response to single peptide immunization relative to peptide pool immunization (CD8^+ T cells [5]; Fig. 8A vs Fig. 6, wild-type GP33–41 peptide) [fold] | CD8^+ T cell response after peptide pool immunization (CD8^+ T cells [5]; pool of 28 peptides, day 11–12, H-2^b mice) | CD8^+ T cell response in F1 hybrid mice (CD8^+ T cells [6])
NP205–212 (YTVKYPNL; UniProt P09992 205-212, looked up, fragment) | 57 |  |  |  |  |  |  | 
GP276–286 (SGVENPGGYCL; UniProt P09991 276-286, looked up, fragment) |  | significantly diminished amounts of IFN-γ |  |  |  |  |  | 
GP33–41 | 449 | significantly diminished amounts of IFN-γ | the LCMV-specific response remained focused on the major dominant epitopes | 4 | 100–200 precursors | ~2 | relatively strongly recognized | still elicited robust T cell responses
